Experimental data from patent US7429460B2, “Methods of screening for inhibitors of phospholipid synthesis related to glycolipid-storage diseases” (Yeda Research and Development Co., Ltd., priority 2003, dated 2008).

What was measured:
human macrophages = experiment: PC synthesis in macrophage cultures; format: cell-based; details: 500 μM CBE for 6 days
Description: Human macrophages were obtained from healthy donors. Blood samples were immediately diluted 2.5 times with PBS pH 7.4 and layered on 3 ml Ficoll Histopaque 1.077 in conical tubes. The tubes were then centrifuged at 400 g for 25 min. The peripheral blood mononuclear leukocyte (PBL) band at the PBS-plasma/Ficoll interface was taken for further analyses. PBL were washed twice with PBS pH 7.4, and resuspended in 5 ml of RPMI 1640 containing 10% fetal calf serum. An aliquot of the cell suspension was used to assess cell viability using the exclusion trypan-blue test. The cell suspension was adjusted to a final concentration of 6*10^6 cells/ml and incubated for 3 hours at 37° C. in a plastic Petri dish (Falcon). Non adherent cell suspension (mononuclear leukocytes) was then transferred to a culture flask while the adherent cells (mainly macrophages) were cultured separately in RPMI 1640 supplemented with 10% fetal calf serum, 2 mM L-glutamine, 100 U/ml penicillin and 0.1 mg/ml streptomycin. The cells were cultured in separate cultures with or without 500 μM CBE for 5 days; on day 5, PMA was added to the macrophage suspension (final concentration: 10 ng/ml) to allow full differentiation. […] The cells were thoroughly washed with non-radioactive medium and lipids were further extracted and analyzed as described herein above. […]

[1] = tested on: CTP:phosphocholine cytidylyltransferase (CCT); experiment: CCT assay in hippocampal neuron homogenates with substance added to the assay mixture; format: biochemical, rat; details: added directly to the assay mixture
Description: Neurons from individual cover slips were washed twice with ice-cold phosphate-buffered saline, and cells removed by scraping into 300 μl of buffer containing 50 mM imidazole, 2 mM EDTA, 150 mM KCl, 6 mM ADP, 0.2 mM phenylmethylsulfonylfluoride, 1 μg/ml pepstatin and 1 μg/ml leupeptin. After brief sonication, an aliquot was removed for DNA determination and 100 μl was used for the CCT assay.
CCT was assayed as described (Weinhold P A and Feldman D A. 1992. Choline-phosphate cytidylyltransferase. Methods Enzymol. 209, 248-258), with some minor modifications. The assay was performed in a final volume of 200 μl containing 1.6 mM phosphorylcholine/0.25 μCi [^14C]methyl phosphorylcholine, 3 mM CTP, 12 mM magnesium acetate, and DOPC liposomes with or without oleic acid and GicCer or GalCer, as indicated in the figure legends. Liposomes were prepared by sonicating resuspended lipids in the assay buffer at room temperature for 3 min using a sonicator (Sonics & Materials Inc., Newtown, Conn.) fitted with a micro-tip probe set to 750 W output, using 25% of the maximal amplitude and with pulsations of 9.0 sec every 9.2 sec, which gave a translucent liposome preparation with no precipitates. The final concentration of DOPC and oleic acid in the liposomes was 500 μM each. The reaction was terminated after 25 min at 37° C. by addition of 200 μl of 150 mM phosphorylcholine in 10% trichloroacetic acid. CDP-choline was recovered by addition of 2 ml of 6% charcoal in water (w/v). After 30 min at room temperature the charcoal suspension was washed 4 times with water and centrifuged at 1,000 gav for 10 min. The aqueous supernatants were removed and CDP-choline was eluted from the charcoal with 3 washes of water/ethanol/28% NH4OH (116:188:11, v/v/v). Eluates were pooled and evaporated to dryness under N2. Phosphorylcholine and CDP-choline were added to the tubes and the samples separated by TLC using 0.9% NaCl/methanol/28% NE4OH (50:70:5, v/v/v) as the developing solvent. Metabolites were identified by iodine, and the CDP-choline spot was scraped into scintillation vials for scintillation counting.
CCT activity was assayed in homogenates prepared from 8-day-old normal rat hippocampal neurons as described herein above. The reaction mixture comprised 0.5 mM DOPC/0.5 mM oleic acid/0.3 mM sphingolipid or lyso-sphingolipid. CCT activity with each sphingolipid or lyso-sphingolipid was measured twice. Basal CCT activity differed by ˜20% between the two experiments; however, the extent of activation or inhibition of CT activity was similar for each sphingolipid and lyso-sphingolipid.

CCT α and β1/2 RNA = experiment: RT-PCR of CCT isoforms in treated neurons; format: cell-based, rat; details: 500 μM CBE, up to 8-days
Description: Total cellular RNA was prepared from ˜0.5×10^6 neurons grown on 24 mm cover slips using the RNeasy Mini Kit (Qiagen, Hilden, Germany) according to manufacturers'instructions. The reverse transcription-polymerase chain reaction (RT-PCR) was performed using the QIAGEN OneStep RT-PCR kit (Qiagen, Hilden, Germany). Briefly, each reaction contained 10 ng of total RNA, 0.6 μM of primers, 1.6 mM deoxynucleotide triphosphates (0.4 mM each) and 1 μl QIAGEN OneStep RT-PCR Enzyme Mix in the supplied buffer in a total volume of 25 μl. Primers (CCT: 5′-ACTTTAGTAA GCCCTATGTC (SEQ ID NO. 7) and 5′-[…] (SEQ ID NO. 8), 34 cycles, annealing temperatures 53° C.; CCT: 5′-[…] (SEQ ID NO. 9) and 5′-[…] (SEQ ID NO. 10), 30 cycles, annealing temperature 51° C.; glyceraldehyde -3-phosphate dehydrogenase: 5′-TTAGCACCCCTGGCCAAGG (SEQ ID NO. 11) and 5′- ATTACTCCTT GGAGGCCATG (SEQ ID NO. 12), 23 cycles, annealing temperature 50° C.) were designed using the MacMolly Tetra program (Sofigene, Berlin, Germany) and were synthesized by the Weizmann Institute Oligonucleotide and Peptide Synthesis facility. […] PCR products, 9 μl each, were analyzed by electrophoresis in 1.5 % agarose gels.

rat hippocampal neurons [2] = details: 200 μM CBE, after 3 days in culture; cited from earlier work
rat hippocampal neurons [3] = details: 500 μM CBE for 4- or 8-days; cited from earlier work

effect on CCT activity when added directly to the assay mixture [1]: had no effect
SMILES: O[C@H]1[C@H](O)[C@@H](O)[C@@H]2O[C@@H]2[C@@H]1O (racemic) [CBE, conduritol-B-epoxide]
[14C]-PC in treated macrophages (human macrophages): dramatic increase
CCT RNA levels (RT-PCR) (CCT α and β1/2 RNA): No changes
axons longer than untreated counterparts (rat hippocampal neurons [2]): ~20%
increase in the rate of incorporation of [3H]dihydrosphingosine into [3H]GlcCer (rat hippocampal neurons [3]): 4-5 fold
